Measured values published in ChEMBL document CHEMBL1201862, “PubChem BioAssay data set” (2004).
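Grown in 96-well plates, cells were treated for 48 hours with each compound at five concentrations. Insufficient inhibition: endpoint recorded as highest concentration tested. Abbreviation: GI50, concentration required for 50% inhibition of growth.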 Calls of active or inactive are those of the source. Cut-off read from the data, not from the text of the source: active = GI50 up to about 1.1 µM and inactive = higher.

Tests used:
Experiment in all cases: growth of human tumour cells (NCI), 48 h
PC-3 = test system: PC-3
SK-MEL-2 = test system: SK-MEL-2
SNB-75 = test system: SNB-75
OVCAR-5 = test system: OVCAR-5
A549 = test system: A549
NCI-H226 = test system: NCI-H226
MDA-N = test system: MDA-N
ACHN = test system: ACHN
NCI/ADR-RES = test system: NCI/ADR-RES
HT-29 = test system: HT-29
MDA-MB-231 = test system: MDA-MB-231
786-0 = test system: 786-0
Hs-578T = test system: Hs-578T
SK-OV-3 = test system: SK-OV-3
MCF7 = test system: MCF7
NCI-H522 = test system: NCI-H522
NCI-H460 = test system: NCI-H460
HOP-92 = test system: HOP-92
HCC 2998 = test system: HCC 2998
DU-145 = test system: DU-145
SF-295 = test system: SF-295
KM12 = test system: KM12
IGROV-1 = test system: IGROV-1
OVCAR-3 = test system: OVCAR-3
CAKI-1 = test system: CAKI-1
U-251 = test system: U-251
SN12C = test system: SN12C
UO-31 = test system: UO-31
OVCAR-4 = test system: OVCAR-4
HCT-15 = test system: HCT-15
UACC-257 = test system: UACC-257
K562 = test system: K562
SK-MEL-5 = test system: SK-MEL-5
A498 = test system: A498
SNB-19 = test system: SNB-19
TK-10 = test system: TK-10
Malme-3M = test system: Malme-3M
NCI-H23 = test system: NCI-H23
SK-MEL-28 = test system: SK-MEL-28
RPMI-8226 = test system: RPMI-8226
UACC-62 = test system: UACC-62
HL-60 = test system: HL-60
HOP-62 = test system: HOP-62
HCT-116 = test system: HCT-116
MDA-MB-435 = test system: MDA-MB-435
SW-620 = test system: SW-620
M14 = test system: M14
LOX IMVI = test system: LOX IMVI
BT-549 = test system: BT-549
SF-539 = test system: SF-539
SR = test system: SR
OVCAR-8 = test system: OVCAR-8
CCRF-CEM = test system: CCRF-CEM
EKVX = test system: EKVX
T47D = test system: T47D
SF-268 = test system: SF-268
COLO 205 = test system: COLO 205
MOLT-4 = test system: MOLT-4

`C/C(=N\NC(=S)N1CCCCC1)c1nc2cccnc2[nH]1` was tested, and the GI50 (PC-3) was 5.3 µM (inactive), the GI50 (SK-MEL-2) was 22 µM (inactive) and the GI50 (SNB-75) was 38.4 µM (inactive). For the same compound, the GI50 (OVCAR-5) was 9.66 µM (inactive), the GI50 (A549) was 6.7 µM (inactive) and the GI50 (NCI-H226) was 8.53 µM (inactive). The GI50 (MDA-N) was 14.6 µM (inactive), the GI50 (ACHN) was 3.95 µM (inactive) and the GI50 (NCI/ADR-RES) was 3.83 µM (inactive). For the same compound, the GI50 (HT-29) was 4.3 µM (inactive), the GI50 (MDA-MB-231) was 3.81 µM (inactive) and the GI50 (786-0) was 18 µM (inactive). For the same compound, the GI50 (Hs-578T) was 38.8 µM (inactive), the GI50 (SK-OV-3) was 41.6 µM (inactive) and the GI50 (MCF7) was 3.67 µM (inactive). For the same compound, the GI50 (NCI-H522) was 12.9 µM (inactive), the GI50 (NCI-H460) was 4.03 µM (inactive) and the GI50 (HOP-92) was 7.48 µM (inactive). The GI50 (HCC 2998) was 20.2 µM (inactive), the GI50 (DU-145) was 14.7 µM (inactive) and the GI50 (SF-295) was 8.51 µM (inactive). For the same compound, the GI50 (KM12) was 9.02 µM (inactive), the GI50 (IGROV-1) was 21 µM (inactive) and the GI50 (OVCAR-3) was 5.15 µM (inactive). The GI50 (CAKI-1) was 13.2 µM (inactive), the GI50 (U-251) was 9.46 µM (inactive) and the GI50 (SN12C) was 19.7 µM (inactive). The GI50 (UO-31) was 4.24 µM (inactive), the GI50 (OVCAR-4) was 4.24 µM (inactive) and the GI50 (HCT-15) was 5.81 µM. For the same compound, the GI50 (UACC-257) was 8 µM (inactive), the GI50 (K562) was 6.9 µM (inactive) and the GI50 (SK-MEL-5) was 4.03 µM (inactive). For the same compound, the GI50 (A498) was 17.2 µM (inactive), the GI50 (SNB-19) was 15.7 µM (inactive) and the GI50 (TK-10) was 21.3 µM (inactive). The GI50 (Malme-3M) was 27.9 µM (inactive), the GI50 (NCI-H23) was 13.6 µM (inactive) and the GI50 (SK-MEL-28) was 16 µM (inactive). For the same compound, the GI50 (RPMI-8226) was 4.33 µM (inactive), the GI50 (UACC-62) was 13.7 µM (inactive) and the GI50 (HL-60) was 3.35 µM (inactive). For the same compound, the GI50 (HOP-62) was 9.62 µM (inactive), the GI50 (HCT-116) was 4.19 µM (inactive) and the GI50 (MDA-MB-435) was 15.1 µM (inactive). For the same compound, the GI50 (SW-620) was 6.38 µM (inactive), the GI50 (M14) was 7.46 µM (inactive) and the GI50 (LOX IMVI) was 7.83 µM (inactive). For the same compound, the GI50 (BT-549) was 4.3 µM (inactive), the GI50 (SF-539) was 6.14 µM (inactive) and the GI50 (SR) was 3.64 µM (inactive). The GI50 (OVCAR-8) was 4.19 µM (inactive), the GI50 (CCRF-CEM) was 2.79 µM (inactive) and the GI50 (EKVX) was 5.3 µM (inactive). For the same compound, the GI50 (T47D) was 5.08 µM (inactive), the GI50 (SF-268) was 5.51 µM (inactive) and the GI50 (COLO 205) was 4.51 µM (inactive). The GI50 (MOLT-4) was 3.41 µM (inactive).
